# According to patent US20240158446A1, “CYCLIC COMPOUND HAVING SELECTIVE INHIBITORY ACTION ON KRAS OVER HRAS AND NRAS” (CHUGAI SEIYAKU KABUSHIKI KAISHA, priority 2021, published 2024):
# Where a SMILES comes first, the peptide text is derived from it. Bridges are numbered along the chain shown (N, C = ends). [ ]: non-standard residue; d: D form. The star is where a group is joined. hPhe(3-Cl-4-CF3) = N[C@@H](CCc1ccc(C(F)(F)F)c(Cl)c1)C(=O)O; NPrPhe(4-CF3) = CCCN[C@@H](Cc1ccc(C(F)(F)F)cc1)C(=O)O; NEtPhe(4-CF3) = CCN[C@@H](Cc1ccc(C(F)(F)F)cc1)C(=O)O; NMeGly(cPent) = CN[C@H](C(=O)O)C1CCCC1; Hyp = O=C(O)[C@@H]1C[C@@H](O)CN1; NMeD = CN[C@@H](CC(=O)O)C(=O)O; NMeL = CN[C@@H](CC(C)C)C(=O)O; hPip = O=C(O)[C@@H]1CCCCCN1; Morpholide = C1CN(*)CCO1; Ac5c = NC1(C(=O)O)CCCC1; Aze = O=C(O)[C@@H]1CCN1; Ac4c = NC1(C(=O)O)CCC1; Aib = CC(C)(N)C(=O)O; Sar = CNCC(=O)O
# Tests used:
# [1] = target: GDP-bound HRAS wild-type protein (Homo sapiens, UniProt P01112); assay: Binding to HRAS by surface plasmon resonance (SPR), Single Cycle Kinetics; conditions: SPR, GDP-bound HRAS wild-type protein vs GDP-bound KRAS wild-type protein
# [2] = target: GDP-bound NRAS wild-type protein (Homo sapiens, UniProt P01111); assay: Binding to NRAS by surface plasmon resonance (SPR), Single Cycle Kinetics; conditions: SPR, GDP-bound NRAS wild-type protein vs GDP-bound KRAS wild-type protein
# [3] = test system: human lung cancer strain NCI-H441;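 note: cell proliferation inhibition after four days measured by CellTiter-Glo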
# Sequence of GDP-bound NRAS wild-type protein (P01111 whole entry): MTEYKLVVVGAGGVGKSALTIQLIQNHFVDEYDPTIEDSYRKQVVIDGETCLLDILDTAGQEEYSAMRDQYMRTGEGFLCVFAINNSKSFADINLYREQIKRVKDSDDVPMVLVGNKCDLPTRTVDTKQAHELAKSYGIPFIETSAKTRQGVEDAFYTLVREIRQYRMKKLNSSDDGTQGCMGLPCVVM
# Sequence of GDP-bound HRAS wild-type protein (P01112 whole entry): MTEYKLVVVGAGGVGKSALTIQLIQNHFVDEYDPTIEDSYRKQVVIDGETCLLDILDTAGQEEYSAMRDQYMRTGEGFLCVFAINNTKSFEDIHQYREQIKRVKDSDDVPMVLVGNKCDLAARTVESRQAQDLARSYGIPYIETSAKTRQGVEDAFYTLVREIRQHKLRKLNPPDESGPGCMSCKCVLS
IC50 [3] [nM],Structure (SMILES),HRAS/KRAS (ratio of KD value for HRAS to KD value for KRAS) [1],NRAS/KRAS (ratio of KD value for NRAS to KD value for KRAS) [2]
11.7,CCCN1C(=O)CN(C)C(=O)[C@@H]2CCN2C(=O)[C@H]([C@@H](C)CC)NC(=O)[C@H](CC(C)C)N(C)C(=O)C[C@@H](C(=O)N2CCOCC2)N(C)C(=O)[C@H](C2CCCC2)N(C)C(=O)C2(CCCC2)NC(=O)[C@@H]2C[C@@H](OC)CN2C(=O)[C@H](CCc2ccc(C(F)(F)F)c(Cl)c2)NC(=O)CN(C)C(=O)[C@@H]1Cc1ccc(C(F)(F)F)cc1 [PP0309] ([NMeL]I[Aze][Sar][NPrPhe(4-CF3)][Sar][hPhe(3-Cl-4-CF3)][Hyp](Me)[Ac5c][NMeGly(cPent)][NMeD]-Morpholide; lactam N-11),B (a compound having 3 or more and less than 10 is denoted as B),B (a compound having 3 or more and less than 10 is denoted as B)
126,CCCN1C(=O)CN(C)C(=O)[C@@H]2CCN2C(=O)[C@H]([C@@H](C)CC)NC(=O)[C@@H]2CCCCCN2C(=O)C[C@@H](C(=O)N2CCOCC2)N(C)C(=O)[C@H](C2CCCC2)N(C)C(=O)C2(CCCC2)NC(=O)[C@@H]2CCCN2C(=O)[C@H](CCc2ccc(C(F)(F)F)c(Cl)c2)NC(=O)CN(C)C(=O)[C@@H]1Cc1ccc(C(F)(F)F)cc1 [PP0302] ([hPip]I[Aze][Sar][NPrPhe(4-CF3)][Sar][hPhe(3-Cl-4-CF3)]P[Ac5c][NMeGly(cPent)][NMeD]-Morpholide; lactam N-11),C (A compound having a KD ratio of 0.1 or more and less than 3 is denoted as C),B (a compound having 3 or more and less than 10 is denoted as B)
296,CCCN1C(=O)CN(C)C(=O)[C@@H]2CCN2C(=O)[C@H]([C@@H](C)CC)NC(=O)[C@H](CC(C)C)N(C)C(=O)C[C@@H](C(=O)N2CCOCC2)NC(=O)[C@H](C2CCCC2)N(C)C(=O)C2(CCC2)NC(=O)[C@@H]2CCCN2C(=O)[C@H](CCc2ccc(C(F)(F)F)c(Cl)c2)NC(=O)CN(C)C(=O)[C@@H]1Cc1ccc(C(F)(F)F)cc1 [PP0338] ([NMeL]I[Aze][Sar][NPrPhe(4-CF3)][Sar][hPhe(3-Cl-4-CF3)]P[Ac4c][NMeGly(cPent)]D-Morpholide; lactam N-11),B (a compound having 3 or more and less than 10 is denoted as B),B (a compound having 3 or more and less than 10 is denoted as B)
4.5,CC[C@H](C)[C@@H]1NC(=O)[C@H](CC(C)C)N(C)C(=O)C[C@@H](C(=O)N2CCOCC2)N(C)C(=O)[C@H](C2CCCC2)N(C)C(=O)C(C)(C)NC(=O)[C@@H]2CCCN2C(=O)[C@H](CCc2ccc(C(F)(F)F)c(Cl)c2)NC(=O)CN(C)C(=O)[C@H](Cc2ccc(C(F)(F)F)cc2)N(CC)C(=O)CN(C)C(=O)CN(C)C1=O [PP0235] ([NMeL]I[Sar][Sar][NEtPhe(4-CF3)][Sar][hPhe(3-Cl-4-CF3)]P[Aib][NMeGly(cPent)][NMeD]-Morpholide; lactam N-11),C (A compound having a KD ratio of 0.1 or more and less than 3 is denoted as C),B (a compound having 3 or more and less than 10 is denoted as B)
135,CCCN1C(=O)CN(C)C(=O)[C@@H]2CCN2C(=O)[C@H]([C@@H](C)CC)NC(=O)[C@H](CC(C)C)N(C)C(=O)C[C@@H](C(=O)N2CCOCC2)NC(=O)[C@H](C2CCCC2)N(C)C(=O)C2(CCCC2)NC(=O)[C@@H]2C[C@@H](OCC)CN2C(=O)[C@H](CCc2ccc(C(F)(F)F)c(Cl)c2)NC(=O)CN(C)C(=O)[C@@H]1Cc1ccc(C(F)(F)F)cc1 [PP0341] ([NMeL]I[Aze][Sar][NPrPhe(4-CF3)][Sar][hPhe(3-Cl-4-CF3)][Hyp](Et)[Ac5c][NMeGly(cPent)]D-Morpholide; lactam N-11),B (a compound having 3 or more and less than 10 is denoted as B),B (a compound having 3 or more and less than 10 is denoted as B)
